Measurements as given in patent EP4524128A1, “BENZOPHENONE CROSSLINKERS” (Hemoteq AG, priority 2023, dated 2025).
“Also recorded” adds a separate entry of the source.

Assay: Solubility in solvents and monomer
Format: physicochemical

Row | SMILES | Solubility in N-vinylpyrrolidone | Solubility in THF | Solubility in acetone (acetone) | Solubility in chloroform (chloroform) | Solubility in deionized water (deionized water) | Solubility in ethanol (ethanol) | Solubility in ethyl acetate (ethyl acetate) | Solubility in n-heptane (n-heptane)
1 | C=C(C)C(=O)NCCCNC(=O)c1ccc(C(=O)c2ccccc2)cc1 [APMA-BBC, N-[3-(4-benzoylbenzamido)propyl]methacrylamide] | readily soluble; also recorded: Freely soluble | Freely soluble | – | – | – | – | – | –
2 | C=C(C)C(=O)OCCOC(=O)c1ccc(C(=O)c2ccccc2)cc1 [HEMA-BBA, 1-(4-benzoylbenzoic acid)-2-methaacrylic acid-glycolester] | only slowly soluble | moderately soluble | insoluble | highly soluble | insoluble | insoluble | insoluble | slightly to sparingly soluble
